Where two headings read alike, the source gives them in different places.
Experiments:
[1] = system: Candida albicans (strain ATCC #90028); experiment: Inhibition of Candida spp. culture (XTT); assay type: cell-based
Procedure: (§1) Candida albicans (strain ATCC #90028), Candida krusei (strain ATCC #90030), and Torulopsis (Candida) glabrata (strain ATCC #6258) were subcultured from cryopreserved stocks onto sabourand dextrose agar plates. Blastoconidia were suspended into RPMI-MOPS (media) and inoculated (500 cfu/well) into 96-well plates containing test compounds in a final volume of 100 μL/well. After 22 hours at 35° C., 25 μL of XTT (2,3-bis(2-methoxy-4-nitro-5-sulfophenyl)-5-[(phenylamino)carbonyl]-2H-tetrazolium hydroxide), (100 μg/mL) with PMS (phenazine methyl sulfate, 5 μM) were added to each well, followed by 2 hours of shaking. Growth was assessed spectrophotometrically by measuring the appearance of soluble formazan stain at 450 nm using an Emax microplate reader.

[2] = system: Candida krusei (strain ATCC #90030); experiment: Inhibition of Candida spp. culture (XTT); assay type: cell-based; conditions: Pichia kudriavzevii, ATCC90030, C. krusei, 22 hours at 35° C., read-out: antifungal MIC
Procedure: as §1

[3] = system: Torulopsis (Candida) glabrata (strain ATCC #6258); experiment: Inhibition of Candida spp. culture (XTT); assay type: cell-based; conditions: T. (C.) glabrata, 22 hours at 35° C., read-out: antifungal MIC
Procedure: as §1

[4] = system: chitin synthase II (CS II); experiment: Inhibition of chitin synthase, CS II only; assay type: biochemical, C. albicans
Procedure: Plasma membrane was purified from C. albicans (ATCC #90028) according to Orlean, J. Biol. Chem. 262:5732-5-1987. To minimize proteolysis during plasma membrane preparation, 1% fetal calf serum was incorporated into the homogenization buffer. Plasma membrane was activated by trypsin (125 μg/mg protein) in the presence of 1.5 mM UDP-GLcNAc(c) at 25° C. for 5 minutes. The reaction was stopped by the addition of soybean trypsin inhibitor. The activated membranes (0.125 mg membrane protein/mL) were […], 40 mM GlcNAc, 4 mM ^14C-UDP-GlcNAc (specific: 0.25 mCi/mmol) (New England Nuclear Boston, Mass.) and plant extract (100 μg/mL). The incubation was carried out at 37° C. for 1 hour and terminated with the addition of trichloroacetic acid (10%). The reaction mixture was transferred to a pre-wetted glass fiber filter. The filter was washed with 4×200 μL of a 7:3 solution of 95% EtOH and 1 M acetic acid. The filter was dried under a heat lamp and counted in a Microbeta counter (Wallac, Gaithersburg, Md.) after the addition of 25 μL OPTIPHASE SUPERMIX™ (Wallac) scintillation fluid. Nikkomycin Z and Polyoxin D were used as positive controls (Calbiochem, San Diego, Calif.). Vehicle control was carried out with the same amount of DMSO (2%).
The SOP assay described above was modified to pH 7.5 and 5 mM MgCl2 (instead of CoCl2). […]

[5] = molecular target: T1, chitin synthase III (CS III) (Candida albicans, UniProt P30573); experiment: Inhibition of chitin synthase, CS III only; assay type: biochemical, C. albicans
T1 construct: endogenous in cells
T1 sequence (P30573 whole entry): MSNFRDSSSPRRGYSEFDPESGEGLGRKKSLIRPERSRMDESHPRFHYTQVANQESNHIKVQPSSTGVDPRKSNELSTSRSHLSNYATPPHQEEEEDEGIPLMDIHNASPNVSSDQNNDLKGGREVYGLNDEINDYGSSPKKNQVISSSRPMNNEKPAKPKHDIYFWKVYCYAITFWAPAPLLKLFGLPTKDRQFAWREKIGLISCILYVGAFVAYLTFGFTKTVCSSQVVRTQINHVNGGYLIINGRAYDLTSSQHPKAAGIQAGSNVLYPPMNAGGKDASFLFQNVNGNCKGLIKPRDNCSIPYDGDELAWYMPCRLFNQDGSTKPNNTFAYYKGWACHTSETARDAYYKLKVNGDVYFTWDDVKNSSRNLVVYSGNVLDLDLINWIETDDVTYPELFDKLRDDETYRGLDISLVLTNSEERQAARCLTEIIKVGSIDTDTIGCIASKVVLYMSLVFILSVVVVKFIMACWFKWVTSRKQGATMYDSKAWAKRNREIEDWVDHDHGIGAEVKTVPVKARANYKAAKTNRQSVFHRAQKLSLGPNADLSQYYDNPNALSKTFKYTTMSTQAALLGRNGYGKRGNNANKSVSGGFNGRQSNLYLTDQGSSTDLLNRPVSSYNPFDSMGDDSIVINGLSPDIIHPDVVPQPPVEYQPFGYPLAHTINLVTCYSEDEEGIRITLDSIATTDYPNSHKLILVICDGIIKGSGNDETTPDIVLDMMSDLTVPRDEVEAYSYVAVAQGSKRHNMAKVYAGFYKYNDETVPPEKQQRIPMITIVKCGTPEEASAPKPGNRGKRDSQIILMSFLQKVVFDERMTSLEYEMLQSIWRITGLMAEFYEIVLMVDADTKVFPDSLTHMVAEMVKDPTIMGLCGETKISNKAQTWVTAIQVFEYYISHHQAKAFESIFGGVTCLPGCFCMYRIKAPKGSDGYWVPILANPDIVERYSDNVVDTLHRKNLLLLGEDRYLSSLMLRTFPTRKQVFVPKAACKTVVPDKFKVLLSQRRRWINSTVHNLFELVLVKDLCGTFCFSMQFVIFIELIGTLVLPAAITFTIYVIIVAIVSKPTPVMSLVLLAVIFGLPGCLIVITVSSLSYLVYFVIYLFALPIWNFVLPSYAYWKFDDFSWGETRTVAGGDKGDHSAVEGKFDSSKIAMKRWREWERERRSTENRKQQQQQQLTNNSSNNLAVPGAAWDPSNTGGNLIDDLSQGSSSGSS
Procedure: Plasma membrane was purified from C. albicans (ATCC #90028) according to Orlean, J. Biol. Chem. 262:5732-5-1987. To minimize proteolysis during plasma membrane preparation, 1% fetal calf serum was incorporated into the homogenization buffer. Plasma membrane was activated by trypsin (125 μg/mg protein) in the presence of 1.5 mM UDP-GLcNAc(c) at 25° C. for 5 minutes. The reaction was stopped by the addition of soybean trypsin inhibitor. The activated membranes (0.125 mg membrane protein/mL) were then assayed in a total of 50 μL reaction mixture containing 50 mM Tris-HCl (pH 8.0) 3 mM CoCl2, 40 mM GlcNAc, 4 mM ^14C-UDP-GlcNAc (specific: 0.25 mCi/mmol) (New England Nuclear Boston, Mass.) and plant extract (100 μg/mL). The incubation was carried out at 37° C. for 1 hour and terminated with the addition of trichloroacetic acid (10%). The reaction mixture was transferred to a pre-wetted glass fiber filter. The filter was washed with 4×200 μL of a 7:3 solution of 95% EtOH and 1 M acetic acid. The filter was dried under a heat lamp and counted in a Microbeta counter (Wallac, Gaithersburg, Md.) after the addition of 25 μL OPTIPHASE SUPERMIX™ (Wallac) scintillation fluid. Nikkomycin Z and Polyoxin D were used as positive controls (Calbiochem, San Diego, Calif.). Vehicle control was carried out with the same amount of DMSO (2%). […]

[6] = system: Candida albicans strain #64, sensitive to fluconazole; experiment: Fluconazole-sensitive candidiasis in mice; assay type: in vivo
Procedure: Immunocompetent mice (ICR, Sprague-Dawley, Indianapolis, Ind.) were infected with a pathogenic strain (strain #64) of Candida albicans which is sensitive to fluconazole. […] […] […] In addition, the organ fungal load (in CFU) was measured at day 30.

[7] = system: C. albicans UTR-14, fluconazole-resistant clinical isolate; experiment: Fluconazole-resistant candidiasis in mice; assay type: in vivo
C. albicans = experiment: Inhibition of C. albicans with drug combinations; assay type: cell-based, Candida albicans
Procedure: as §1
Formula (V) was tested in combination with known antifungal agents amphotericin B and fluconazole. A 10 mg/ml stock solution of formula (V) was diluted in 100% DMSO and stored at −80° C. Fluconazole and Amphotericin B were similarly prepared and stored as a 8 mg/ml stock solution, and a 1.25 mg/ml stock solution, respectively. Each known antifungal agent was added (2 μl/well), then 2 μl/well of the formula (V) solution was added to the designated wells. The remainder of the experiment follows Example 21.

A. funigatis ATCC8001 = experiment: Inhibition of fungal growth, MIC scored visually; assay type: cell-based; conditions: Aspergillus fumigatus
Procedure: (§2) Test compounds were tested against nine isolates in an eight-point dose response assay ranging from 50 μg/ml to 0.39 μg/ml. Aspergillus MIC's (minimum inhibitory concentrations) were scored visually after 48 and 72 hours at 37° C. […] Amphotericin B (2.5 μg/ml) and 5-flucytosine (2.0 μg ml) were standard controls for each antifungal assay. […] The results are shown below in Table 4, MIC values in μg/ml after 72 hours. HFF toxicity was analyzed after a 24 hour incubation at 37° C. (5% CO2). MTS/PMS was added, and the sample absorbance was read at 450 nm.

A. niger = experiment: Inhibition of fungal growth, MIC scored visually; assay type: cell-based; conditions: Aspergillus niger
Procedure: as §2

A.funigatus 94-2766 = experiment: Inhibition of fungal growth, MIC scored visually; assay type: cell-based; conditions: Aspergillus fumigatus, 942766
Procedure: as §2

C. tropicalis ATCC75O = experiment: Inhibition of fungal growth, MIC scored visually; assay type: cell-based; conditions: Candida tropicalis, 24 hour incubation at 35° C., read-out: Minimum Inhibitory Concentration
Procedure: as §2

C. albicans ATCC90028 = experiment: Inhibition of fungal growth, MIC scored visually; assay type: cell-based; conditions: Candida albicans, 24 hour incubation at 35° C., read-out: Minimum Inhibitory Concentration
C. krusei ATCC6258 = experiment: Inhibition of fungal growth, MIC scored visually; assay type: cell-based, Candida krusei; conditions: Pichia kudriavzevii, 24 hour incubation at 35° C., read-out: Minimum Inhibitory Concentration
Procedure: as §2

[8] = system: C. glabrata (Fluconazole resistant); experiment: Inhibition of fungal growth, MIC scored visually; assay type: cell-based, Candida glabrata; conditions: Nakaseomyces glabratus; fluconazole resistant clinical isolate; 24 hour incubation at 35° C.; read-out: Minimum Inhibitory Concentration
[9] = system: C. parapsilosis ATCC90018; experiment: Inhibition of fungal growth, MIC scored visually; assay type: cell-based, Candida parapsilosis; conditions: Lodderomyces parapsilosis, 24 hour incubation at 35° C., read-out: Minimum Inhibitory Concentration
Procedure: as §2

CC(C)=CCc1c(O)cc2c(c1O)C(=O)C(=Cc1ccc(O)c(O)c1)O2 [Formula (V), 5-prenylaureusidin]
MIC ([1]; Candida albicans, ATCC90028, C. albicans, XTT, 22 hours at 35° C., read-out: antifungal MIC): 12.5 µg/mL | MIC [2]: 6.25 µg/mL | MIC [3]: 6.25 µg/mL | IC50 [4]: 223 µM | IC50 [5]: 107 µM | percent survival after 30 days ([6]; 20 mg per kg body weight i.p., once a day for 10 days): about 70% | percent survival after 30 days ([6]; 40 mg per kg body weight p.o., once a day for 10 days): about 60% | fungal load reduction in each organ ([6]; day 30): over 99% | percent survival after 20 days ([7]; 40 mg per kg body weight p.o.): about 80% | combination effect with Amphotericin B (C. albicans; in combination with Amphotericin B): apparent synergy | combination effect with fluconazole (C. albicans; in combination with fluconazole): apparent additivity

CC(C)(C)c1ccc(/C=C2\Oc3cc(O)cc(O)c3C2=O)cc1 [Formula S02]
MIC (A. funigatis ATCC8001; ATCC8001, ATCC8001 (X2), value outside parentheses, read-out: Minimum Inhibitory Concentration): 6.25 µg/mL | MIC (A. funigatis ATCC8001; ATCC8001, read-out: Minimum Inhibitory Concentration (value in parentheses), ATCC8001 (X2), value in parentheses, not defined (scored after 48 and 72 hours)): > 50 µg/mL | MIC (A. funigatis ATCC8001; ATCC8001, read-out: Minimum Inhibitory Concentration, ATCC8001 (X1), 37° C.): 12.5 µg/mL | MIC (A. niger; clinical isolate, value outside parentheses, read-out: Minimum Inhibitory Concentration): > 50 µg/mL | MIC (A. niger; value in parentheses, not defined (scored after 48 and 72 hours), read-out: Minimum Inhibitory Concentration (value in parentheses)): > 50 µg/mL | MIC (A.funigatus 94-2766; 94-2766, value in parentheses, not defined (scored after 48 and 72 hours), read-out: Minimum Inhibitory Concentration (value in parentheses)): > 50 µg/mL | MIC (A.funigatus 94-2766; 94-2766 clinical isolate, value outside parentheses, read-out: Minimum Inhibitory Concentration): 6.25 µg/mL | MIC (C. tropicalis ATCC75O): 12.5 µg/mL | MIC (C. albicans ATCC90028): 12.5 µg/mL | MIC (C. krusei ATCC6258): 6.25 µg/mL | MIC [8]: 0.39 µg/mL | MIC [9]: 6.25 µg/mL

OC(Cn1cncn1)(Cn1cncn1)c1ccc(F)cc1F [fluconazole, reference compound]
C. albicans minimum inhibitory concentration (MIC) compared with reported ranges ([1]; assay validation): within reported ranges | percent survival after 30 days ([6]; 40 mg per kg body weight, twice a day): about 30% | percent survival after 20 days ([7]; 40 mg per kg body weight p.o. (twice daily)): 0%

Source: US20020086895A1, “Methods of treating fungal infections” (priority 1985, published 2002)
